The molecules below were run against T1, C5a anaphylatoxin chemotactic receptor 1 (Homo sapiens, UniProt P21730) (assay: ChEBML_41457).
T1 sequence (P21730 whole entry): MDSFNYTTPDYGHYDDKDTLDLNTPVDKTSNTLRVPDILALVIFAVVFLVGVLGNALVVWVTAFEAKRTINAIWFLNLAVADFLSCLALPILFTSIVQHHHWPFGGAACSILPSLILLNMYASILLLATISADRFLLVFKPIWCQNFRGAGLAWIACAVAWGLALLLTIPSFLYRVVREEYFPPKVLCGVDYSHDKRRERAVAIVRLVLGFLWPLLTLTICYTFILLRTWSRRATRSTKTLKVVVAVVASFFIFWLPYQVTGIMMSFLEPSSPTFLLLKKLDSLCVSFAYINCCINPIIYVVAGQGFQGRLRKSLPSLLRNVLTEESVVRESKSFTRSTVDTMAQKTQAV
From the text: Tested for its ability to compete with [125I]C5a for binding to C5a anaphylatoxin chemotactic receptor of human neutrophil membrane preparations
`CCC[C@H](C(=O)N1CCC2(CCc3ccccc32)CC1)n1c(O)c(CCCNC(=N)N)[nH]c1=O` [5-[3-amino(imino)methylaminopropyl]-3-[1-spiro[2,3-dihydro-1H-indene-1,4'-(hexahydropyridine)]-1-ylcarbonyl-(1R)-butyl]-(5R)-tetrahydro-1H-2,4-imidazoledione] gave an IC50 of 3 µM.
Work on `NCCCCc1[nH]c(=O)n([C@H](CC2CCCCC2)C(=O)N2CCC3(CCc4ccccc43)CC2)c1O` [5-(4-aminobutyl)-3-[1-cyclohexylmethyl-2-oxo-2-spiro[2,3-dihydro-1H-indene-1,4'-(hexahydropyridine)]-1-yl-(1R)-ethyl]-(5R)-tetrahydro-1H-2,4-imidazoledione] yielded an IC50 of 4 µM.
In the case of `N=C(N)NCCCc1[nH]c(=O)n([C@H](Cc2ccc(O)cc2)C(=O)N2CCC3(CCc4ccccc43)CC2)c1O` [5-[3-amino(imino)methylaminopropyl]-3-[1-(4-hydroxybenzyl)-2-oxo-2-spiro[2,3-dihydro-1H-indene-1,4'-(hexahydropyridine)]-1-yl-(1R)-ethyl]-(5R)-tetrahydro-1H-2,4-imidazoledione], the IC50 is reported as 4 µM.
Work on `N=C(N)NCCCc1[nH]c(=O)n(C(CCc2ccccc2)C(=O)N2CCC3(CCc4ccccc43)CC2)c1O` [5-[3-amino(imino)methylaminopropyl]-3-[3-phenyl-1-spiro[2,3-dihydro-1H-indene-1,4'-(hexahydropyridine)]-1-ylcarbonylpropyl]-(5R)-tetrahydro-1H-2,4-imidazoledione] yielded an IC50 of 3 µM.

— BindingDB's records for doi:10.1016/S0960-894X(96)00606-3 (1997)
